From US20250074913A1, “PYRAZOLE DERIVATIVES AS STING AGONISTS” (Hoffmann-La Roche Inc., priority 2022, published 2025)
pEC50: −log10 of the molar value. Like-named read-outs stand apart in the source and are kept apart here.

How the values were obtained:
[1] = test system: interferon regulatory factor (IRF) pathway in THP1-Dual™ cells; test: THP1-Dual reporter gene assay (Agonist_THP1_EC50); format: cell-based; conditions: Homo sapiens, 20-24 hrs compound treatment, Lucia luciferase (IRF) readout
Method in brief: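 Human THP-1 monocytes with Lucia luciferase under ISG54 minimal promoter plus five ISREs; ~33,000 cells/well with serially diluted compound, final 1% DMSO, 20-24 h at 37 °C. Supernatant Lucia luciferase read by QUANTI-Luc Gold luminescence; viability by CCK-8, A450 after 2 h.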

[2] = Single dose pharmacokinetics (SDPK) in female C57BL/6J mice; format: in vivo; conditions: mouse, 1 mg/kg, iv, plasma
Description: This is the single dose pharmacokinetics (PK) study in female C57/BL6 mice. The purpose of this study was to determine the pharmacokinetics of selected compounds following a single intravenous bolus injection in female C57BL/6J mice. Briefly, 3 female C57BL/6J mice (available from Shanghai Lingchang Biotechnology Co., Ltd) were treated with a single dose of compound intravenously at 1 mg/kg (IV). Blood samples were collected at 5 min, 15 min, 30 min, 1 h, 2 h, 4 h, 7 h and 24 h post-dose. Blood samples were placed on wet ice until centrifugation to obtain plasma samples. The compound concentration in plasma samples was determined using LC-MS/MS method. The pharmacokinetic parameters were calculated by non-compartmental analysis.

human PBMC = test: hPBMC cytokine release assay (Luminex, IFN-β); format: cell-based; conditions: read-out: Agonist_hPBMC_IFN-β_EC50
Description: This is the cytokines concentration detection with Luminex assay for human PBMC supernatant. Human peripheral blood mononuclear cells (PBMC) are treated by compounds with appropriate time. Multiple cytokines are released in the supernatant in response to the compound stimulation. Luminex assay can measure the cytokines concentration in supernatant and the compounds activity on human PBMC can be evaluated.
Frozen PBMC was thawed and cultured in PRMI1640 (GIBCO 11875-093) whole medium with […] Heat inactivated-FBS (HI—FBS), 1% NEAA, […] in CO2 incubator overnight. Cells were centrifuged at 400×g for 5 minutes at 4° C. and the pellet was re-suspended with complete RPMI1640 medium to concentration of 1×10^6 cells/ml in cell culture flask T75 (Thermo Fisher Scientific). Compounds were serially diluted with DMSO and distributed to 96-well flat bottom cell plate (Corning 3599) with Echo555. 90 μL/well PBMC cells were seeded into the plates with Multidrop (Thermo Fisher Scientific). After 24 hours of incubation in CO2 incubator, cells were centrifuged at 400×g for 5 minutes at room temperature, 80 μL supernatant each well was collected for cytokines release test with luminex assay of Human custom ProcartaPlex 5-plex kit (Thermo Fisher Scientific PPX-05). 10 μL supernatant or standards were added to a mixture of color-coded beads, 5 μL Biotinylated detection antibodies specific to the analytes of interest were added and formed an antibody-antigen sandwich. 10 μL Phycoerythrin (PE)-conjugated streptavidin is added to the plate and then read signal of each well on the Luminex 200™. The raw data was analyzed by Millipore Analyst Software and cytokine concentrations were generated accordingly. The EC50 of corresponding cytokine such as interferon-β (IFN-β) was calculated by the 4-parameter sigmoidal concentration response model fitting.

[3] = 24 hours incubation, IFN-β in supernatant
[4] = female, C57BL/6J, prior art compounds (Table 4)

pEC50 [1] | AUC(0-t) ([2]; female C57BL/6J mice) | C0 ([2]; female C57BL/6J mice) | clearance ([2]; female C57BL/6J mice) | AUC(0-t) [2, 4] | C0 [2, 4] | clearance [2, 4] | Structure (SMILES) | pEC50 (human PBMC; [3]) | pEC50 (human PBMC; prior art compounds (Table 4), IFN-β)
7.96 | 151 ng·h/mL | 1600 ng/mL | 114 mL/min/kg | – | – | – | Cc1cc2c(C(N)=O)nn(-c3nc(-c4c(O)c(C)nn4CCc4ccccc4)n[nH]3)c2cn1 [Example 40, 1-[3-[4-hydroxy-5-methyl-2-(2-phenylethyl)pyrazol-3-yl]-1H-1,2,4-triazol-5-yl]-5-methyl-pyrazolo[3,4-c]pyridine-3-carboxamide] | 7.34 | –
8.30 | 150 ng·h/mL | 2200 ng/mL | 111 mL/min/kg | – | – | – | CCCn1nc(C)c(O)c1-c1n[nH]c(-c2c(F)c(C(N)=O)n3cc(C)ncc23)n1 [Example 79, 7-fluoro-8-[3-(4-hydroxy-5-methyl-2-propyl-pyrazol-3-yl)-1H-1,2,4-triazol-5-yl]-3-methyl-pyrrolo[1,2-a]pyrazine-6-carboxamide] | 7.66 | –

More lines, now with the values behind:

Structure (SMILES) | pEC50 [1] | AUC(0-t) ([2]; female C57BL/6J mice) | C0 ([2]; female C57BL/6J mice) | clearance ([2]; female C57BL/6J mice) | AUC(0-t) [2, 4] | C0 [2, 4] | clearance [2, 4] | pEC50 (human PBMC; [3]) | pEC50 (human PBMC; prior art compounds (Table 4), IFN-β)
CCn1nc(C)c(O)c1-c1n[nH]c(-c2c(F)c(C(N)=O)n3cc(C)ncc23)n1 [Example 4, 8-[3-(2-ethyl-4-hydroxy-5-methyl-pyrazol-3-yl)-1H-1,2,4-triazol-5-yl]-7-fluoro-3-methyl-pyrrolo[1,2-a]pyrazine-6-carboxamide] | 6.79 | 122 ng·h/mL | 1720 ng/mL | 137 mL/min/kg | – | – | – | – | –
CCn1nc(C)c(O)c1-c1nnc(-c2nc(C(N)=O)cc3c2cnn3C)[nH]1 [AC01, reference compound] | – | – | – | – | 102 ng·h/mL | 997 ng/mL | 170 mL/min/kg | – | 7.55
CCCn1nc(C)c(O)c1-c1n[nH]c(-n2nc(C(N)=O)c3cc(C)ncc32)n1 [Example 31, 1-[3-(4-hydroxy-5-methyl-2-propyl-pyrazol-3-yl)-1H-1,2,4-triazol-5-yl]-5-methyl-pyrazolo[3,4-c]pyridine-3-carboxamide] | 7.72 | 597 ng·h/mL | 5500 ng/mL | 30 mL/min/kg | – | – | – | 7.49 | –
